Key:
Type in all cases: functional
[1] = target: T1, Cdk-related protein kinase 6 (Plasmodium falciparum, UniProt O77239); assay: Final concentrations were 1.5 uM ATP, 5 mM MnCl2, and 15 ug/ml PK6 in a buffer of 100 mM Tris-HCl (pH 7.5). 50 ug/mL MBP was provided as the substrate; 10 uM staurosporine was used as a control inhibitor. Incubation time was 3 hours and 40 minutes.The catalytic activity of each kinase was considered proportional to ATP consumed, as determined from measurements of residual [ATP] with the luciferase-based reagent Kinase-Glo (Promega) following incubation. Luminescence (proportional to residual [ATP]) was measured on the plate readers FLx800 (BioTek Instruments, Winooski, VT, USA) and MicroBeta2.
T1 sequence (O77239 whole entry): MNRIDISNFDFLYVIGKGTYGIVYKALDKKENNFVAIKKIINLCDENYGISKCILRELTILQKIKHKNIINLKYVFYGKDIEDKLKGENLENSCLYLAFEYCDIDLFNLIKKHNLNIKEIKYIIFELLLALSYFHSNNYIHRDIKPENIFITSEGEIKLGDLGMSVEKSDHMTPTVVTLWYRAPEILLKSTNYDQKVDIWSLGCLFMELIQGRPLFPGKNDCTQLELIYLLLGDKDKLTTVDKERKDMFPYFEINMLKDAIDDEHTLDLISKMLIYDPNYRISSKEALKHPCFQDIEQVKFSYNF

[2] = target: T2, Putative uncharacterized protein pk7 (Plasmodium falciparum, UniProt O96214); assay: Final concentrations were 1 uM ATP, 2 mM DTT, 20 mM MgCl2, 2 mM MnCl2, 0.01% BSA, and 6 ug/ml PK7, in a buffer of 20 mM Tris-HCl (pH 7.5). The enzyme itself was the only substrate present (since autophosphorylation occurs); 100 uM 1NA-PP1 was used as a control inhibitor. Incubation time was 3 hours.
T2 sequence (O96214 whole entry): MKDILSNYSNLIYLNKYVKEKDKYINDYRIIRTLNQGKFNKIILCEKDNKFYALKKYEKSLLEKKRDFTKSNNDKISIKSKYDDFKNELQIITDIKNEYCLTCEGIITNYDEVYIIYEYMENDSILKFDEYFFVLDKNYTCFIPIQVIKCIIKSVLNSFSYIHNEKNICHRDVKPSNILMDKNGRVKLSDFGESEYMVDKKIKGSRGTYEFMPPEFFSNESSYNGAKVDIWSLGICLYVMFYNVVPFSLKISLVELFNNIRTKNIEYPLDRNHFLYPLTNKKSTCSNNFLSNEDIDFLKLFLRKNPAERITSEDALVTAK

[3] = target: T3, Mitogen-activated protein kinase (Plasmodium falciparum, UniProt Q25917); assay: Final concentrations were 1 uM ATP, 0.5 mM DTT, 1 mM MgCl2, 0.5 mg/mL BSA, and 10 ug/ml MAP2 in a buffer of 50 mM HEPES (pH 7.0). 0.5 mg/mL histone III-S served as the substrate (13); 100 uM AMP-PNP, an ATP analog, was used as a control inhibitor. Incubation time was 4 hours.
T3 sequence (Q25917 whole entry): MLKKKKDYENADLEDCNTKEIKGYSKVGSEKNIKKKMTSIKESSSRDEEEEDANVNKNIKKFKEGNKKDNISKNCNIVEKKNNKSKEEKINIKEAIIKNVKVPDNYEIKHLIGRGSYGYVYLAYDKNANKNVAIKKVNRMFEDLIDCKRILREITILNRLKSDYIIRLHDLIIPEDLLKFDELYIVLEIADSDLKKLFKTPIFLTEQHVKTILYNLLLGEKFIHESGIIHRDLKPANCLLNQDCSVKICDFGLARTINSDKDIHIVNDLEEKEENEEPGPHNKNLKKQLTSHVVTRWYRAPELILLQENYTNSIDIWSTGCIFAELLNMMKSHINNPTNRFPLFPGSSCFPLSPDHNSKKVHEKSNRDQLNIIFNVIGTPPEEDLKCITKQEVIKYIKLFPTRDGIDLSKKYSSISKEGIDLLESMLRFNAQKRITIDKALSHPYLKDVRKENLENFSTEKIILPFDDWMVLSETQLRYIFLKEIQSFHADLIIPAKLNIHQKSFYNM

[4] = target: Calcium-dependent protein kinase 1 (Plasmodium falciparum, UniProt P62344); assay: MMV: CDPK1 Protein kinase inhibition assay using recombinant PfCDPK1, syntide 2 peptide substrate, ATP and KinaseGlo to measure % inhibition at 1 uM MMV box compound.
[5] = target: T4, Calcium-dependent protein kinase 4 (Plasmodium falciparum (isolate 3D7), UniProt Q8IBS5); assay: MMV: CDPK4 Protein kinase inhibition assay using recombinant PfCDPK4, syntide2 peptide substrate, ATP and KinaseGlo to measure % inhibition at 1 uM MMV box compound.
T4 sequence (Q8IBS5 whole entry): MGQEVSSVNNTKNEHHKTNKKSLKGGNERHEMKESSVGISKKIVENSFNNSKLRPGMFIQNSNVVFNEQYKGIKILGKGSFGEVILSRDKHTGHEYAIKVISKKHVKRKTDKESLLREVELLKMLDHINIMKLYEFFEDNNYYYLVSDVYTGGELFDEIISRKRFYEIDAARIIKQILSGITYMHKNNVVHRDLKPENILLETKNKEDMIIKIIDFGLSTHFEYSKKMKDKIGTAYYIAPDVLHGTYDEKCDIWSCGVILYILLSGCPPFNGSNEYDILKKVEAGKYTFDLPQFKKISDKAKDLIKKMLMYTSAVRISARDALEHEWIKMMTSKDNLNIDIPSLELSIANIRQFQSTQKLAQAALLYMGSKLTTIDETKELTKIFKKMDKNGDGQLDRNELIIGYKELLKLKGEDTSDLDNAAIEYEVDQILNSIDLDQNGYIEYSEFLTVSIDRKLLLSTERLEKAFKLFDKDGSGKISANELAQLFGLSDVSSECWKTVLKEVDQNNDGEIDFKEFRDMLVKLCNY

Proline--tRNA ligase = target: T5, Proline--tRNA ligase (Plasmodium falciparum (isolate 3D7), UniProt Q8I5R7); assay: MMV: ProRS recombinant Plasmodium falciparum Prolyl-tRNA-synthetase, assay with yeast tRNA, ATP, and proline and 3 uM MMV malaria box compound, assay read out with kinase glo as % inhibition.
T5 sequence (Q8I5R7 whole entry): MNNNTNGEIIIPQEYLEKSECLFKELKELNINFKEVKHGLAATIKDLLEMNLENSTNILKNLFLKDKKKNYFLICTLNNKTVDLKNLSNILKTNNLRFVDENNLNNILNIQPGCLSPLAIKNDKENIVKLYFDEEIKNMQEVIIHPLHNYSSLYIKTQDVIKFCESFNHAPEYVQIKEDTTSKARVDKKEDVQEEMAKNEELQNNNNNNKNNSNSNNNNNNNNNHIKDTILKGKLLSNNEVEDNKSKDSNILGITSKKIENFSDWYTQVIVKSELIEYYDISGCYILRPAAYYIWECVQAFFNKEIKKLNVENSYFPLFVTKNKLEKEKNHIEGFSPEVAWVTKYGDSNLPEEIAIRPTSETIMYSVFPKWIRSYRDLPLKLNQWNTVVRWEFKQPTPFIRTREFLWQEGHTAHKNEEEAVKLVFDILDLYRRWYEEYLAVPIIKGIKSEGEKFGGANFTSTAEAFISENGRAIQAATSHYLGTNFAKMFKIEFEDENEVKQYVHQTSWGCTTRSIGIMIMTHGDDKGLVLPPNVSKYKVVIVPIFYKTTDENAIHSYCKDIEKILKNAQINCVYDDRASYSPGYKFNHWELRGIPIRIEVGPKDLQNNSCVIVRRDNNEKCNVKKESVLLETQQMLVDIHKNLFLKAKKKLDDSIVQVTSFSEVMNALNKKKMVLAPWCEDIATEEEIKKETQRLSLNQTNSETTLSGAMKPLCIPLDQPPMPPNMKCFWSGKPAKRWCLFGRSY

Lysine--tRNA ligase = Lysine--tRNA ligase (Plasmodium falciparum (isolate 3D7), UniProt Q8IDJ8); assay: MMV: KRS recombinant Plasmodium falciparum Lysyl-tRNA-synthetase, assay with yeast tRNA, ATP, and lysine and 3 uM MMV malaria box compound, assay read out with kinase glo as % inhibition.
Chain of Lysine--tRNA ligase (Q8IDJ8 whole entry): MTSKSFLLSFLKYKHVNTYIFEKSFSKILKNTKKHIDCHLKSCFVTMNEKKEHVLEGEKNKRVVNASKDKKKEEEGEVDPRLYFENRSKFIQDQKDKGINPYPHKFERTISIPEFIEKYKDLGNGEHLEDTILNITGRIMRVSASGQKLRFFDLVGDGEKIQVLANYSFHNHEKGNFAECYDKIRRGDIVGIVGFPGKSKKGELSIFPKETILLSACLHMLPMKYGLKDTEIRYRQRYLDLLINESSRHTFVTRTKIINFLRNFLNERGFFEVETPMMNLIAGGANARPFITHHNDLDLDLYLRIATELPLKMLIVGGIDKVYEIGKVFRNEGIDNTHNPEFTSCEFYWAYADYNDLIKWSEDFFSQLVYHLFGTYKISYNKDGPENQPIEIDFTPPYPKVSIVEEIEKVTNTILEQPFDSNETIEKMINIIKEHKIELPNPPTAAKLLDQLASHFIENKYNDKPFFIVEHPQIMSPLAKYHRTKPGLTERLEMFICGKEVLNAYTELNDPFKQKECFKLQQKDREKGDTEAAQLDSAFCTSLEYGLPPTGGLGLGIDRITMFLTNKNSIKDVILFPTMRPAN

Chain of Calcium-dependent protein kinase 1 (P62344 whole entry): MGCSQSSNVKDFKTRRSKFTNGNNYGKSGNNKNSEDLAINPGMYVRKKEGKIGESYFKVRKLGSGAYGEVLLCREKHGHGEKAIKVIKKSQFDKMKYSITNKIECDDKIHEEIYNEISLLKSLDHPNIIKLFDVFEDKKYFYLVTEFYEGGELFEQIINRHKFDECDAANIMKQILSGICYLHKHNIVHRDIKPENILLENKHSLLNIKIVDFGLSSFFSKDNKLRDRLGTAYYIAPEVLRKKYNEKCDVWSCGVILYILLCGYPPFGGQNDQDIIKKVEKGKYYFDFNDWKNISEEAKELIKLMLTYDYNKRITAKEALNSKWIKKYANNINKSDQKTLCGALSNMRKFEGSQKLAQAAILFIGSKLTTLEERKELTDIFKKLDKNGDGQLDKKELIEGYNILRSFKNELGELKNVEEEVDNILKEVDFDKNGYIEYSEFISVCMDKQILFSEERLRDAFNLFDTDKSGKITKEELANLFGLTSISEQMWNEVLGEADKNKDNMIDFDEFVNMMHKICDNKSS

| Compound | IC50 [1] [nM] | IC50 [2] [nM] | IC50 [3] [nM] | IC50 [4] [nM] | IC50 [5] [nM] | IC50 (Proline--tRNA ligase) [nM] | IC50 (Lysine--tRNA ligase) [nM] |
| --- | --- | --- | --- | --- | --- | --- | --- |
| Nc1nc(Nc2cccc(F)c2)nc2ccccc12 | > 1000 | > 1000 | > 1000 | > 1000 | > 1000 | > 2500 | > 2500 |
| COc1ccc(/C=C2/SC(=Nc3ccccc3)NC2=O)cc1 | > 1000 | > 1000 | > 1000 | > 1000 | > 1000 | > 2500 | > 2500 |
| O=C(NC1CCN(Cc2ccccc2)CC1)c1cc2nc(-c3ccc(Cl)s3)cc(C(F)(F)F)n2n1 | > 1000 | > 1000 | > 1000 | > 1000 | > 1000 | > 2500 | > 2500 |
| Cc1sc(NC(=O)c2ccccc2)c(C(c2cccs2)N2CCN(c3ccccc3)CC2)c1C (stereo not given) | > 1000 | > 1000 | > 1000 | > 1000 | > 1000 | > 2500 | > 2500 |
| N#Cc1nc(Cc2cccc3ccccc23)oc1N1CCN(C(c2ccccc2)c2ccccc2)CC1 | > 1000 | > 1000 | > 1000 | > 1000 | > 1000 | > 2500 | > 2500 |
| COc1cccc(Nc2nc(N)c3ccccc3n2)c1 | > 1000 | > 1000 | > 1000 | > 1000 | > 1000 | > 2500 | > 2500 |
| Oc1ccc(-c2nc(-c3ccc4oc5ccc(-c6[nH]c(-c7ccc(O)cc7)nc6-c6ccccc6)cc5c4c3)c(-c3ccccc3)[nH]2)cc1 | > 1000 | > 1000 | > 1000 | > 1000 | > 1000 | > 2500 | > 2500 |
| COc1ccc(CNC(=O)c2cc3c(=O)n4ccccc4nc3n(CCc3ccccc3)c2=N)cc1 | > 1000 | > 1000 | > 1000 | > 1000 | > 1000 | > 2500 | > 2500 |
| Cn1c(=O)n(C)c2cc(CNCCNc3ccnc4cc(Cl)ccc34)ccc21 | > 1000 | > 1000 | > 1000 | > 1000 | > 1000 | > 2500 | > 2500 |
| CCOc1ccc2nc(C)cc(Nc3ccc(N(C)C)cc3)c2c1 | > 1000 | > 1000 | > 1000 | > 1000 | > 1000 | > 2500 | > 2500 |

Reference: ChEMBL document CHEMBL3301562, “MMV Box screening against Plasmodium falciparum protein kinases and aminoacyl tRNA synthetases”
